Data taken from patent US4177269A, “Novel 17-esters of 17α-hydroxy gestogens, compositions containing such compounds, processes for their preparation and methods of treatment therewith” (Aktiebolaget Leo, priority 1976, dated 1979).

Key:
[1] = system: Ehrlich ascites tumour, ELD hyperdiploid; assay: Ehrlich ascites tumour, ELD hyperdiploid (46 chromosomes), growth inhibition in mice; assay type: in vivo, SPF NMRI mice; settings: 100 mg/kg, one i.p. injection
Text: The experimental design and the interpretation of the results are in accordance with the standards set by the CCNSC (Cancer Chemotherpy Reports, January 1959 and December 1962).
Ehrlich ascites tumour, ELD hyperdiploid
Experimental animals: SPF NMRI mice.
Tumour implant: 2 × 10^6 tumour cells i.p.
Therapy: One injection i.p. on the day following implanta-
Termination: The animals are killed on the 8th day.
Evaluation: Weight of tumours of test animals compared with
those of control animals.

[2] = system: Hepatome AH 130; assay: Hepatome AH 130 tumour growth inhibition in rats; assay type: in vivo, Sprague-Dawley rats; set-up: ED50: unit not given here; settings: one i.p. injection, dose causing 50 percent reduction of tumour size, killed 8th day
How it was run: (§1)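 Sprague-Dawley rats implanted i.p. with 5 × 10^6 tumour cells, given a single i.p. injection the day after implantation, and killed on day 8. Tumour weights compared with controls; ED50 is the dose halving tumour size, LD50 the dose lethal to 50% of animals.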

[3] = Hepatome AH 130 tumour growth inhibition in rats; assay type: in vivo, Sprague-Dawley rats; set-up: ED50: unit not given here; settings: rat, in vivo, ip, one i.p. injection
How it was run: as §1

## CC(=O)[C@@]1(OC(=O)COC(=O)c2ccc(C)c(N(CCCl)CCCl)c2)CC[C@H]2[C@@H]3CCC4=CC(=O)CC[C@]4(C)[C@H]3CC[C@@]21C [Compound 3:7, 17α-/3-(N,N-bis(2-chloroethyl)amino)-4-methylbenzoyloxyacetoxy/pregn-4-ene-3,20-dione]
[1]
  Mortality: 0/12
[1]; 8th day
  Tumour weight Treated/Control: 2%
[2]
  ED50: 2
[3]; dose causing 50 percent lethality, column head not given
  LD50: > 250 mg/kg
[3]; read-out: T.I. (LD50/ED50)
  selectivity ratio: > 125
